Patent publication US20100099698A1, “Compositions for Improving Skin Conditions Comprising Matrine or Its Oxidized Derivatives” (Biospectrum Inc., priority 2007, published 2010)

Legend:
B16 mouse melanoma cells = assay: Inhibition of melanin production in melanoma cells; format: cell-based; conditions: 72 h, 100 μM, 3 days, read-out: Inhibitory rate of melanin production (%)
Description: After measuring the inhibition of melanin production by matrine and oxymatrine using B16 mouse melanoma cells (Korean Cell Line Bank), the measurement was compared with that for the inhibition of melanin production by arbutin, known as a melanin production inhibitor.
B16 mouse melanoma cells F10 (Korean Cell Line Bank) were seeded into each well of a 6-well plate (1×10^5 cells/well) in DMEM (Dulbecco's modified Eagle's media) containing 10% FBS (fetal bovine serum) and the cells were cultured to about more than 80% confluence by incubating in a CO2 incubator under conditions of 37° C. and 5.0% CO2. After cultivation, the medium was removed and samples were replaced in medium diluted at suitable concentration, followed by incubating for 3 days under conditions of 37° C. and 5.0% CO2. […] The cells removing medium were washed with PBS (phosphate buffer saline) and treated with trypsin to collect cells. Number of the collected cells was calculated using hematocytometer (Tiefe Depth Profondeur 0.100 mm, Paul Marienfeld GmbH & Co. KG, D.E), centrifuged at 5,000 to 10,000 rpm for 10 min and the supernatant was eliminated, thereby obtaining pellets. This cell pellets were dried at 60° C., 100 μl of 1M NaOH containing 10% DMSO was added to thereto, and intracellular melanin was obtained in incubator at 60° C. Then, the cell solution was measured for absorbance at 490 nm using microplate reader (Bio-Tek ELx8081U, U.S) and the amount of melanin per cell constant number was estimated.

tyrosinase = molecular target: T1, tyrosinase (Mus musculus, UniProt P11344); assay: Inhibition of intracellular tyrosinase activity in melanoma cells; format: cell-based, Murine; conditions: B16-F1; 100 μM, 3 days, B-16 F1 cells; read-out: Inhibitory rate of intracellular tyrosinase activity (%)
T1 construct: This cell pellets were lysated using lysis buffer, centrifuged at 12,000 rpm for 10 min and the supernatant was collected; endogenous in cells; host or cells: B16 F1 mouse melanoma cells (Korean Cell Line Bank)
T1 sequence (P11344 19-533): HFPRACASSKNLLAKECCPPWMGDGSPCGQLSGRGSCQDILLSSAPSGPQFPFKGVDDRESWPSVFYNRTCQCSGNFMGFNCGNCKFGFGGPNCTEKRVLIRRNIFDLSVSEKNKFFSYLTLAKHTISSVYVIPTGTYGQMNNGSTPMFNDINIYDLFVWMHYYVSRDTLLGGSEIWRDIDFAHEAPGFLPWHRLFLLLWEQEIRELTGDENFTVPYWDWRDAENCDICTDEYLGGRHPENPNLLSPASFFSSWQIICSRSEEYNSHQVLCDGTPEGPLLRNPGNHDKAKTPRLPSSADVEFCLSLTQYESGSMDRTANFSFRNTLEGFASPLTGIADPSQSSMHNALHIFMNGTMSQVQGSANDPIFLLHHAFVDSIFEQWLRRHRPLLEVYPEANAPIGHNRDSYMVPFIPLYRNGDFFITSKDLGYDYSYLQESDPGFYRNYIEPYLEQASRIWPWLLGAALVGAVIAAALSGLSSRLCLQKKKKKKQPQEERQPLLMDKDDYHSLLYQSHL
Description: After measuring the inhibition of melanin production by matrine and oxymatrine using B16 mouse melanoma cells (Korean Cell Line Bank), the measurement was compared with that for the inhibition of intracellular tyrosinase activities by arbutin, known as a melanin production inhibitor.
Murine melanoma (B-16 F1) cells were seeded into each well of a 6-well plate (1×10^5 cells/well) in DMEM containing 10% FBS (fetal bovine serum) and the cells were cultured to about more than 80% adherence by incubating in a CO2 incubator under conditions of 37° C. and 5.0% CO2. After cultivation, the medium was removed and samples were replaced in medium diluted at suitable concentration, followed by incubating for 3 days under conditions of 37° C. and 5.0% CO2. […] The cells removing medium were washed with PBS (phosphate buffer saline) and treated with trypsin to collect cells. Number of the collected cells was calculated using hematocytometer, centrifuged at 5,000 to 10,000 rpm for 10 min and the supernatant was eliminated, thereby obtaining pellets. This cell pellets were lysated using lysis buffer, centrifuged at 12,000 rpm for 10 min and the supernatant was collected. Then, the cell solution was measured for absorbance at 492 nm using microplate reader and the activity of tyrosinase per cell constant number was estimated.

pigmentation of skin = assay: Skin whitening of UV-induced pigmentation, chromameter L* value; format: in vivo, brown guinea pigs; conditions: 1.0 %, topical once or twice a day for 50 days, UV-pigmented abdominal skin
Description: A whitening effect of matrine and oxymatrine was measured using brown guinea pigs (Charles River Laboratories, Inc.), known to increase its pigmentation upon exposure to ultraviolet light, like in humans. To cause pigmentation in the brown guinea pig by ultraviolet (UV), aluminum foil with square windows of 3×3 cm^2 was adhered to hair-removed abdominal skin of brown guinea pig, and then UV light was irradiated thereon with a SE lamp (wavelength 290-320 nm, Toshiba) (total irradiation energy=1350 mJ/cm^2). After UV irradiation, the aluminum foil was removed and samples (matrine, oxymatrine or albutin) were applied as the following method. […] From the maximum, samples were applied. Applications performed once or twice a day for 50 days. […] The control with only the solvent was applied to another site. Occurrence of cumulative irritation also was examined. The degree of pigmentation of skin was determined using a chromameter (CR2002, MINOLTA, JP) to estimate the effects of applied samples. L*a*b* colorimetric system was used to classify color and L* value was used as standard in the present invention. The L* value was corrected using white board standard and was measured more than five times at one site, repeatedly. Pigmentation was evenly distributed. Skin color differences (ΔL*) between application initial point and application terminal point were obtained and then using these values, their effects of the applied samples were estimated. ΔL*=L* value at […] after application-L* value at application initial day. Equation 1 ΔL* values were obtained both at sample application site and control application site and compared, whereby the effects of the whitening substances can be estimated.

inhibition at 100 µM (tyrosinase): 29%
SMILES: OC[C@H]1O[C@@H](Oc2ccc(O)cc2)[C@H](O)[C@@H](O)[C@@H]1O [Albutin, arbutin, reference compound]
inhibition at 100 µM (B16 mouse melanoma cells): 26%
Whitening effects (ΔL) (pigmentation of skin): 0.49
